Laboratory results reported in patent US20220331348A1, “METHOD OF PREPARING PENTACYCLIC TRITERPENOID SAPONINS AND DRUG COMPOSITION” (CHINA PHARMACEUTICAL UNIVERSITY, priority 2019, published 2022).

Experiments:
[1] = test system: CCl4-induced hepatic fibrosis mice; experiment: CCl4-induced hepatic fibrosis mice; assay type: in vivo, mouse; conditions: for MMP2 gene expression / TGF-β gene expression / collagen 1 gene expression: CCl4-induced hepatic fibrosis mice, 5 mg/Kg, n = 8
Method: Animal: 32 C57BL/6J male mice of SPF level with 25 g were purchased from Beijing Vital River Laboratory Animal Technology Co., Ltd. All the animals maintained 12 h alternative circadian rhythm with free access to food.
Reagent: the ginsenoside Ro was purchased from Shanghai Boka Chemistry Technology Co., Ltd; CCl4 was purchased from sigma Company; and sunflower seed oil was purchased from Nanjing Yuanye Biotechnology Co., Ltd.
The mice were randomly divided into 4 groups based on weights: a blank control group (CTL), a model group (CCl4), a ginsenoside Ro low-dosage group (Low) (5 mg/kg) and a ginsenoside Ro high-dosage group (High) (10 mg/kg), totally 4 groups (with 8 mice each).
A modeling mode was that the mice were given with a CCl4-contained sunflower seed oil solution (with a CCl4 content of 25%, v/v) in a dosage of 2mL/kg by intraperitoneal injection, and the mice in the control group were injected with a corresponding dosage of the sunflower seed oil solution two times per week. From experiment day 1 onward, the mice in the control group were given with a CMC-Na solution with the mass fraction of 0.5% intragastrically every day and with sunflower seed oil two times per week by intraperitoneal injection; the mice in the model group were given with the CMC-Na solution with the mass fraction of 0.5% intragastrically every day and with the CCl4-contained sunflower seed oil solution two times per week by intraperitoneal injection; the mice in the ginsenoside Ro low-dosage group (Low) were given with 5 mg/kg of the ginsenoside Ro intragastrically every day and with a CCl4 solution two times per week by intraperitoneal injection; and the mice in the ginsenoside Ro high-dosage group (High) were given with 10 mg/kg of the ginsenoside Ro intragastrically every day and with the CCl4-contained sunflower seed oil solution two times per week by intraperitoneal injection. Administration was conducted for a total of 4 weeks.
The mice were deprived of food but not water for 12 h in advance; and the next morning, blood was taken from eyeballs, the mice were sacrificed, and livers were harvested. Right liver lobule tissues were fixed with 4% paraformaldehyde for HE stained slicing. The rest liver tissues were divided into 3 parts, which were snap-frozen in liquid nitrogen for subsequent detection of other indexes.
Whole blood was left to still standing for 2 h at room temperature, centrifugation was conducted for 15 min at 3000 rpm, and a serum was collected and sent to Pathologic Department of Hospital of Integrated Traditional Chinese and Western Medicine in Jiangsu Province for determination of levels of glutamic oxalacetic transaminase (AST) and glutamic-pyruvic transaminase (ALT) in the serum with a full-automatic biochemical analyzer.
Pretreated tissues were sent to Google Biotechnology Co., Ltd for preparing HE stained slices.
6. Extraction of Liver Tissue RNA and q-PCR Detection Liver tissues preserved at −80° C. were put in the liquid nitrogen, about 10 mg of the liver tissues were quickly dissected out, about 500 μL of a precooled Trizol reagent was added, the tissues were homogenized with the homogenizer and then left to lyse on the ice for 15 min, 100 μL of chloroform was added for vigorous shaking for 15 s, and a product was put on the ice for 10 min and then was subjected to centrifugation for 15 min at 4° C. and 12000 rpm. An upper aqueous phase was transferred to a clean 1.5 mL EP tube, […] of isopropanol was added for RNA precipitation, the EP tube was put on the ice for 10 min and then was subjected to centrifugation for 10 min at 4° C. and 12000 rpm. The supernate was discarded, precipitates were washed one time with 75% ethyl alcohol, a supernate was discarded after centrifugation, and precipitates of
RNA dissolved with the water were treated with 40 mL of DEPC. […]

[2] = test system: human ADPKD cyst lining epithelial cell lines WT9-12; experiment: Proliferation of polycystic kidney epithelial cells (CCK-8 method); assay type: cell-based; conditions: 48 h; for inhibition at 10 µM: read-out: Inhibition rate (%)
Description: Cell and reagent: complete media for human ADPKD cyst lining epithelial cell lines WT9-12 and DMEM were purchased from ATCC Company; fetal calf serums were purchased from Gibco Company; Cell Counting Kit-8 was purchased from DOJINDO Company; Click-iT® EdU Imaging Kits were purchased from Invitrogen™ Thermo Fisher Scientific Company; Caspase -3/CPP32 Colorimetric Assay Kit was purchased from BioVision Company; Annexin V/PI double-staining flow type cell apoptosis detection kits were purchased from Bender Company; and anti-Phospho-(AMPKa, mTOR, p70S6K, 4E-BP1) antibodies were purchased from Cell Signaling Technology Company.
The influence of 2-DG on proliferation of the polycystic kidney epithelial cells was detected with a CCK-8 method: a DMEM complete medium containing 10% fetal calf serum (FBS) was prepared. The polycystic kidney epithelial cells were cultured in an incubator with 5% CO2 at 37° C. after being recovered, a solution was replaced every other day, the polycystic kidney epithelial cells were passaged every 2-3 days, and the cells were in a growing state of adhering to the wall. After trypsin enzyme digestion, cells were resuspended by using a complete medium, the concentration of a polycystic kidney epithelial cell suspension was regulated to be 3×10^7/L, the polycystic kidney epithelial cell suspension was inoculated to 96-well plate by […] per well for culture for 24 h, and the suspension was replaced by a culture medium containing 0.1% FBS for synchronization for 24 h.

[3] = CCl4 mice liver, 5 mg/kg and 10 mg/kg, 4 weeks, q-PCR (FIG. 9)
[4] = CCl4 mice, low-dosage 5 mg/kg and high-dosage 10 mg/kg intragastrically every day, 4 weeks (FIG. 8)
[5] = Homo sapiens, Epithelial cell, polycystic kidney epithelial cells, 10 μM, CCK-8, n = 6

CC1(C)CC[C@]2(C(=O)O[C@@H]3O[C@H](CO)[C@@H](O)[C@H](O)[C@H]3O)CC[C@]3(C)C(=CC[C@@H]4[C@@]5(C)CC[C@H](O[C@@H]6O[C@H](C(=O)O)[C@@H](O)[C@H](O)[C@H]6O[C@@H]6O[C@H](CO)[C@@H](O)[C@H](O)[C@H]6O)C(C)(C)[C@@H]5CC[C@]43C)[C@@H]2C1 [(I), ginsenoside Ro]
mRNA expression level of -SMA [1, 3]: significantly lowered
mRNA expression level of MMP2 [1, 3]: significantly lowered
mRNA expression level of TGF [1, 3]: significantly lowered
mRNA expression level of collagen 1 [1, 3]: significantly lowered
level of the ALT in the serum [1, 4]: significantly lowered
level of the AST in the serum [1, 4]: significantly lowered
hepatic fibrosis induced by CCl4 ([1]; CCl4 mice, summary in words): significantly inhibit
inflammatory responses of hepatic fibrosis animal models ([1]; CCl4 mice, summary in words): significantly inhibit
inhibition at 10 µM [2, 5]: 74.4 ± 2.3%

CC1(C)CC[C@]2(C(=O)O[C@@H]3O[C@H](CO[C@@H]4O[C@H](CO)[C@@H](O)[C@H](O)[C@H]4O)[C@@H](O)[C@H](O)[C@H]3O)CC[C@]3(C)C(=CC[C@@H]4[C@@]5(C)CC[C@H](O[C@@H]6OC[C@H](O)[C@H](O)[C@H]6O)[C@@](C)(CO)[C@@H]5CC[C@]43C)[C@@H]2C1 [(II), asperosaponin VI]
IC50 ([2]; Homo sapiens, Epithelial cell, WT9-12 cells, CCK-8 (FIG. 15), read-out: median inhibitory concentration (IC50), proliferation of the polycystic kidney epithelial cells): 3.2 µM

C[C@@H]1O[C@@H](O[C@H]2[C@H](O[C@H]3CC[C@@]4(C)[C@@H](CC[C@]5(C)[C@@H]4CC=C4[C@@H]6CC(C)(C)CC[C@]6(C(=O)O)CC[C@]45C)[C@]3(C)CO)OC[C@H](O)[C@@H]2O)[C@H](O)[C@H](O)[C@H]1O [(X), α-hederin]
MMP2 gene expression [1]: 6.37 ± 5.73 fold induction compared with the control group
TGF-β gene expression [1]: 2.75 ± 0.99 fold induction compared with the control group
collagen 1 gene expression [1]: 7.93 ± 2.28 fold induction compared with the control group
hepatic fibrosis induced by CCl4 ([1]; CCl4 mice, summary in words): effectively inhibit
inhibition at 10 µM [2, 5]: 80.5 ± 3.2%

C[C@@H]1O[C@@H](O[C@H]2[C@H](O[C@H]3CC[C@@]4(C)[C@@H](CC[C@]5(C)[C@@H]4CC=C4[C@@H]6CC(C)(C)CC[C@]6(C(=O)O[C@@H]6O[C@H](CO[C@@H]7O[C@H](CO)[C@@H](O[C@@H]8O[C@@H](C)[C@H](O)[C@@H](O)[C@H]8O)[C@H](O)[C@H]7O)[C@@H](O)[C@H](O)[C@H]6O)CC[C@]45C)[C@]3(C)CO)OC[C@H](O)[C@@H]2O)[C@H](O)[C@H](O)[C@H]1O [(XI), hederacoside C]
MMP2 gene expression [1]: 7.65 ± 4.03 fold induction compared with the control group
TGF-β gene expression [1]: 2.96 ± 1.01 fold induction compared with the control group
collagen 1 gene expression [1]: 8.07 ± 3.27 fold induction compared with the control group
hepatic fibrosis induced by CCl4 ([1]; CCl4 mice, summary in words): effectively inhibit
Inhibition rate (%) ([2]; polycystic kidney epithelial cells, 10 μM, CCK-8, n = 6): 64.4 ± 2.6 %

C[C@@H]1CC[C@]2(C(=O)O[C@@H]3O[C@H](CO)[C@@H](O)[C@H](O)[C@H]3O)CC[C@]3(C)C(=CC[C@@H]4[C@@]5(C)CC[C@H](O[C@@H]6OC[C@H](O)[C@H](O)[C@H]6O)C(C)(C)[C@@H]5CC[C@]43C)[C@@H]2[C@]1(C)O [(XII), ziyuglycoside I]
MMP2 gene expression [1]: 8.38 ± 3.86 fold induction compared with the control group
TGF-β gene expression [1]: 2.91 ± 1.10 fold induction compared with the control group
collagen 1 gene expression [1]: 7.65 ± 2.43 fold induction compared with the control group
hepatic fibrosis induced by CCl4 ([1]; CCl4 mice, summary in words): effectively inhibit
inhibition at 10 µM [2, 5]: 69.2 ± 1.7%

C[C@@H]1CC[C@]2(C(=O)O)CC[C@]3(C)C(=CC[C@@H]4[C@@]5(C)CC[C@H](O[C@@H]6OC[C@H](O)[C@H](O)[C@H]6O)C(C)(C)[C@@H]5CC[C@]43C)[C@@H]2[C@]1(C)O [(XIII), ziyuglycoside II]
MMP2 gene expression [1]: 7.38 ± 3.48 fold induction compared with the control group
TGF-β gene expression [1]: 3.03 ± 0.76 fold induction compared with the control group
collagen 1 gene expression [1]: 8.16 ± 3.37 fold induction compared with the control group
hepatic fibrosis induced by CCl4 ([1]; CCl4 mice, summary in words): effectively inhibit
inhibition at 10 µM [2, 5]: 72.1 ± 2%
